Reference: ChEMBL document CHEMBL5528067, “From Synergy to Monotherapy: Discovery of Novel 2,4,6-Trisubstituted Triazine Hydrazone Derivatives with Potent Antifungal Potency In Vitro and In Vivo” (J Med Chem, 2024)
Converted amounts (≈) assume the structure as drawn. The source made the active and inactive calls. The calls are words filed in the database; no cut-off is given here.

Key:
[1] = tested on: Pichia kudriavzevii; assay: Antifungal activity against Candida krusei 4996 assessed as growth inhibition measured after 48 hrs incubation by CLSI based micro-dilution broth method; assay type: functional
[2] = tested on: Candida albicans; assay: Upregulation of BCR1 gene expression in Candida albicans SC5314 assessed as fold increase at 4 microg/ml by real time RT-PCR analysis relative to control; assay type: functional; details: dose 4.0 µg/ml
[3] = tested on: Pichia kudriavzevii; assay: Antifungal activity against FCZ-resistant Candida krusei 4996 assessed as growth inhibition at 4 microg/ml measured at 24 hrs incubation by time growth assay; assay type: functional, organism-based; details: dose 4.0 µg/ml
[4] = Clearance in Sprague-Dawley rat at 2 mg/kg, iv measured upto 24 hrs by LC-MS/MS analysis; assay type: ADME, organism-based; details: in vivo
[5] = tested on: Candida albicans; assay: Effect on HWP1 gene expression in Candida albicans SC5314 at 4 to 8 microg/ml by real time RT-PCR analysis; assay type: functional; details: dose 4-8 µg/ml
[6] = tested on: Candida albicans; assay: Antibiofilm activity against Candida albicans SC5314 assessed as inhibition of biofilm formation at 4 microg/ml incubated for 24 hrs by XTT/menadione reduction assay relative to control; assay type: functional; parameters: scale not given: the % may be the effect or the level left; details: dose 4 µg/ml
[7] = tested on: Candida albicans; assay: Suppression of SAP6 gene expression in Candida albicans SC5314 assessed as fold increase at 8 microg/ml by real time RT-PCR analysis relative to control; assay type: functional; details: dose 8.0 µg/ml
[8] = tested on: Candida albicans; assay: Antifungal activity against FCZ-resistant Candida albicans strain 904 assessed as growth inhibition in presence of fluconazole measured after 48 hrs incubation by CLSI based micro-dilution broth method; assay type: functional
[9] = tested on: Candida tropicalis; assay: Antifungal activity against Candida tropicalis 8915 assessed as growth inhibition measured after 48 hrs incubation by CLSI based micro-dilution broth method; assay type: functional
[10] = tested on: Candida albicans; assay: Antifungal activity against FCZ-resistant Candida albicans strain 901 assessed as growth inhibition measured after 48 hrs incubation by CLSI based micro-dilution broth method; assay type: functional
[11] = tested on: Candida albicans; assay: Induction of cell wall component change in Candida albicans SC5314 assessed as change in chitin content by measuring […] fluorescence intensity at 4 microg/ml measured after 12 hrs by confocal laser-scanning microscopy; assay type: functional, organism-based; details: dose 4.0 µg/ml
[12] = tested on: Candida albicans; assay: Antibiofilm activity against Candida albicans SC5314 assessed as inhibition of biofilm formation incubated for 24 hrs by XTT/menadione reduction assay; assay type: functional, organism-based; details: dose 1-64 µg/ml
[13] = tested on: Candida albicans; assay: Upregulation of SAP6 gene expression in Candida albicans SC5314 assessed as fold increase at 4 microg/ml by real time RT-PCR analysis relative to control; assay type: functional; details: dose 4.0 µg/ml
[14] = tested on: Candida albicans; assay: Suppression of ALS1 gene expression in Candida albicans SC5314 at 4 to 8 microg/ml by real time RT-PCR analysis; assay type: functional; details: dose 4-8 µg/ml
[15] = tested on: Candida albicans; assay: Synergistic antifungal activity against FCZ-resistant Candida albicans strain 904 assessed as fractional inhibitory concentration index measured after 48 hrs in presence of FCZ by CLSI based micro-dilution broth method; assay type: functional
[16] = tested on: Cryptococcus neoformans; assay: Antifungal activity against FCZ-resistant Cryptococcus neoformans 32609 assessed as growth inhibition at 0.5 to 4 microg/ml measured at 24 hrs incubation by time growth assay; assay type: functional, organism-based; details: dose 0.5-4 µg/ml
[17] = tested on: Candida albicans; assay: Suppression of ALS3 gene expression in Candida albicans SC5314 at 4 to 8 microg/ml by real time RT-PCR analysis; assay type: functional; details: dose 4-8 µg/ml
[18] = tested on: Candida albicans; assay: In vivo antifungal activity against Candida albicans SC5314 infected in po dosed C57BL/6J mouse assessed as reduction in fungal burden in kidney treated once a day for 2 days; assay type: functional, organism-based; details: dose 5-10 mg/kg, time 2.0 day
[19] = tested on: Candida albicans; assay: Filamentation inhibitory effect in Candida albicans SC5314 assessed as inhibition of hyphal formation using hyphal-inducing RPMI 1640 medium at 2 to 8 microg/ml measured after 3 hrs by inverted imaging microscopy; assay type: functional, organism-based; details: dose 2-8 µg/ml
[20] = tested on: Candida albicans; assay: Induction of cell wall component change in Candida albicans SC5314 assessed as decrease in mannan content by measuring ConA fluorescence intensity at 4 microg/ml measured after 12 hrs by confocal laser-scanning microscopy; assay type: functional, organism-based; details: dose 4.0 µg/ml
[21] = tested on: Candida albicans; assay: Antifungal activity against FCZ-resistant Candida albicans strains assessed as growth inhibition in presence of FCZ measured after 48 hrs incubation by CLSI based micro-dilution broth method; assay type: functional
[22] = tested on: [Candida] auris; assay: Antifungal activity against FCZ-resistant Candida auris 919 assessed as growth inhibition measured after 48 hrs incubation by CLSI based micro-dilution broth method; assay type: functional; details: Candidozyma auris
[23] = tested on: Candida albicans; assay: Antibiofilm activity against Candida albicans SC5314 assessed as inhibition of biofilm formation at 64 microg/ml incubated for 24 hrs by XTT/menadione reduction assay relative to control; assay type: functional; parameters: scale not given: the % may be the effect or the level left; details: dose 64 µg/ml
[24] = Half life in Sprague-Dawley rat at 2 mg/kg, iv measured upto 24 hrs by LC-MS/MS analysis; assay type: ADME, organism-based; details: in vivo
[25] = tested on: Candida albicans; assay: Antifungal activity against FCZ-resistant Candida albicans SC5314 assessed as growth inhibition measured after 48 hrs incubation by CLSI based micro-dilution broth method; assay type: functional
[26] = tested on: Candida albicans; assay: Antifungal activity against FCZ-resistant Candida albicans strain 901 assessed as growth inhibition in presence of fluconazole measured after 48 hrs incubation by CLSI based micro-dilution broth method; assay type: functional
[27] = tested on: Candida albicans; assay: Antibiofilm activity against Candida albicans SC5314 assessed as inhibition of biofilm formation at 32 microg/ml incubated for 24 hrs by XTT/menadione reduction assay relative to control; assay type: functional; parameters: scale not given: the % may be the effect or the level left; details: dose 32 µg/ml
[28] = tested on: Candida albicans; assay: Upregulation of EFG1 gene expression in Candida albicans SC5314 assessed as fold increase at 4 microg/ml by real time RT-PCR analysis relative to control; assay type: functional; details: dose 4.0 µg/ml
[29] = tested on: Candida albicans; assay: Induction of cell wall component change in Candida albicans SC5314 assessed as irregular and shrunken cell membrane chitin structure at 4 microg/ml measured after 12 hrs by transmission electron microscopy; assay type: functional, organism-based; details: dose 4.0 µg/ml
[30] = tested on: Nakaseomyces glabratus; assay: Antifungal activity against Candida glabrata 537 assessed as growth inhibition measured after 48 hrs incubation by CLSI based micro-dilution broth method; assay type: functional
[31] = tested on: Candida albicans; assay: Filamentation inhibitory effect in Candida albicans SC5314 assessed as inhibition of hyphal formation using hyphal-inducing RPMI 1640 medium by measuring shorter hyphal at 2 to 8 microg/ml measured after 8 hrs by inverted imaging microscopy; assay type: functional, organism-based; details: dose 2-8 µg/ml
[32] = tested on: [Candida] auris; assay: Antifungal activity against FCZ-resistant Candida auris 918 assessed as growth inhibition measured after 48 hrs incubation by CLSI based micro-dilution broth method; assay type: functional; details: Candidozyma auris
[33] = Metabolic stability in mouse liver microsomes assessed as half life measured upto 60 mins by LC-MS/MS analysis; assay type: ADME, Microsome
[34] = tested on: Candida albicans; assay: Suppression of SAP2 gene expression in Candida albicans SC5314 assessed as fold increase at 8 microg/ml by real time RT-PCR analysis relative to control; assay type: functional; details: dose 8.0 µg/ml
[35] = tested on: Candida albicans; assay: Effect on sterol biosynthesis in Candida albicans SC5314 assessed as sterol component and content at 4 microg/ml measured after 8 hrs by GC-MS analysis; assay type: functional, organism-based; details: dose 4.0 µg/ml
[36] = tested on: Candida parapsilosis; assay: Antifungal activity against Candida parapsilosis 22019 assessed as growth inhibition measured after 48 hrs incubation by CLSI based micro-dilution broth method; assay type: functional; details: Lodderomyces parapsilosis
[37] = AUC (0 to infinity) in Sprague-Dawley rat at 2 mg/kg, iv measured upto 24 hrs by LC-MS/MS analysis; assay type: ADME, organism-based; details: in vivo
[38] = Cytotoxicity against human HUVEC cells assessed as cell viability at 16 microg/ml measured after 24 hrs by CCK-8 assay relative to control; assay type: toxicity, cell-based; details: at 16 µg/mL, read-out: Activity

With `O=[N+]([O-])c1ccc(O)c(/C=N/Nc2nc(NCc3ccc(F)cc3)nc(NCc3ccc(F)cc3)n2)c1` the MIC80 [1] was 1 µg/mL (≈ 1.97 µM), the fold change (FC) [2] was 1.9 and the Activity [3] was “Active”. The clearance [4] was 22.9 mL/min/kg, the Activity [5] was “inactive” and the Activity [6] was 40%. For the same compound, the fold change (FC) [7] was 2.99, the MIC80 [8] was 0.25 µg/mL and the MIC80 [9] was 2 µg/mL (≈ 3.95 µM). For the same compound, the MIC80 [10] was 2 µg/mL (≈ 3.95 µM), the Activity [11] was “Active” and the Activity [12] was “Dose-Dependent Effect”. For the same compound, the fold change (FC) [13] was 4.38, the Activity [14] was “Active” and the “fractional inhibitory concentration index (FICI)” value [15] was 0.38. The Activity [16] was “Active”, the Activity [17] was “Active” and the Activity [18] was “Dose-Dependent Effect”. For the same compound, the Activity [19] was “Active”, the Activity [20] was “Active” and the MIC80 [21] was 0.5 µg/mL. The MIC80 [22] was 16 µg/mL (≈ 31.6 µM), the Activity [23] was 70% and the half-life [24] was 1.28 h. For the same compound, the MIC80 [25] was 4 µg/mL (≈ 7.9 µM), the MIC80 [26] was 0.25 µg/mL and the Activity [27] was 70%. The fold change (FC) [28] was 2.56, the Activity [29] was “Active” and the MIC80 [30] was 0.5 µg/mL (≈ 0.987 µM). For the same compound, the Activity [31] was “Active”, the MIC80 [32] was 2 µg/mL (≈ 3.95 µM) and the half-life [33] was 0.93 h. The fold change (FC) [34] was 1.22, the Activity [35] was “inactive” and the MIC80 [36] was 2 µg/mL (≈ 3.95 µM). For the same compound, the AUC(0-inf) [37] was 1470 ng·h/mL and the viability at 24 h, 16 microg/ml [38] was 75.5%.
